Molecular target: T1, hERG potassium channels (Homo sapiens, UniProt Q12809)
T1 construct: expressed in transfected cells; host or cells: HEK-293 (membranes)
Experiment: hERG binding assay ([35S]MK-499 displacement)
Conditions: [35S]MK-499, HEK-293 hERG membranes
Excerpt: All four compounds were also counter-screened for human ether-a-go-go-related gene (hERG) activity against the radio-ligand MK-0499. Blockade of hERG K^+ channels is widely regarded as the predominant cause of drug-induced QT prolongation. (Aronov, A J Med Chem. 2006 Nov. 16; 49(23):6917-21).
MK-499, a potent hERG blocker, was used in a ligand binding assay to evaluate the binding of test compounds to hERG potassium channels as previously described (Wang, J et al. Am J Physiol Heart Circ Physiol, 2003, 284: H256-H267).^2 Test compounds were incubated with 0.05 nM of radiolabeled MK-499 ([35S]MK-499; specific Activity=1,279,010 μCi/μmol) in an assay buffer solution (70 mM NaCl, 60 mM KCl, 10 mM HEPES/NaOH (pH 7.4), 2 mM MgCl2, 1 mM CaCl2) also containing membranes isolated from HEK-293 cells stably expressing hERG channels in 96 well polypropylene deep-well assay plates at room temperature (25° C.) for >90 min. Assay plates were rinsed three time with buffer (130 mM NaCl, 10 mM HEPES/NaOH (pH 7.4), 2 mM MgCl2, 1 mM CaCl2) and the solution transferred to a Packard FilterMate Universal Harvester apparatus and filtered using PerkinElmer UniFilter-96 GF/C 96-well white microplates pre-soaked with 0.3% BSA (10 mL/L of 30% BSA). Plates were dried overnight at 37° C., or for 2 hrs at 56° C. The bottom of the plates were sealed and 0.025 mL of Microscint 0 was added to each well. The plates were top sealed and counted for 2 min/well in a Packard TopCount Scintillation counter. Test compounds were evaluated in a five point titration format using half-log steps from 0.3 μM to 30 μM. […] Less than 5% of the added radioactivity was retained on the filters. Assays were performed in triplicate.

T1 sequence (Q12809 whole entry): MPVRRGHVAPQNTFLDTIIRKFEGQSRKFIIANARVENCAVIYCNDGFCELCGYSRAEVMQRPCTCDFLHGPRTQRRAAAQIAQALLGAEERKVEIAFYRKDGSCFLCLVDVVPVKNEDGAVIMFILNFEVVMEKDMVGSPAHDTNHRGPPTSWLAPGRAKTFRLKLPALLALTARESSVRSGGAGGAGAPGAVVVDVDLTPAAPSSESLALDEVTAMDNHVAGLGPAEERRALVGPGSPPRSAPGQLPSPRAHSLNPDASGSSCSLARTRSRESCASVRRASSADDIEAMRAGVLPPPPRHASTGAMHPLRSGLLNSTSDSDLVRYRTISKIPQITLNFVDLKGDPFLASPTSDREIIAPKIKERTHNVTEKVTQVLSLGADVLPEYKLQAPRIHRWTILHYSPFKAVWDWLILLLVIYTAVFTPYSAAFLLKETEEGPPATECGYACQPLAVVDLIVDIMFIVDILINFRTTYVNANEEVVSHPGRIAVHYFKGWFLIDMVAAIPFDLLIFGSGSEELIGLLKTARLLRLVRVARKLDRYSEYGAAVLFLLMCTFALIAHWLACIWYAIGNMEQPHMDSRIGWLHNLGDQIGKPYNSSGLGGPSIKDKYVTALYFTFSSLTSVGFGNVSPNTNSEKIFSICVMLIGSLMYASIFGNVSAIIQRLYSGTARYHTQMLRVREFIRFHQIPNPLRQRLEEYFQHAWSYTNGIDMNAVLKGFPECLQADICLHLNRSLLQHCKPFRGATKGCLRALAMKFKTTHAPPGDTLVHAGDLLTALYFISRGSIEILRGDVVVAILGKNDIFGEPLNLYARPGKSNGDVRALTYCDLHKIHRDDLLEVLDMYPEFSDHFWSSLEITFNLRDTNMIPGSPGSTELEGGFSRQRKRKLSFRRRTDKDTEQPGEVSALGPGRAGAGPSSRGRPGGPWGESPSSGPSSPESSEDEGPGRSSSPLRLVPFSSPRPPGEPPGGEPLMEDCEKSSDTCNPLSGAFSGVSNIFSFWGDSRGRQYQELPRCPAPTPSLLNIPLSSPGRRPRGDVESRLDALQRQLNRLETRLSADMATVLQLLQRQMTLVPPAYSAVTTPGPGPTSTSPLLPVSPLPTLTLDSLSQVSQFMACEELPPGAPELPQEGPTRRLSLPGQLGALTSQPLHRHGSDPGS

## O=C1NC(=O)C(c2ccccc2)(c2ccccc2)N1 [DPH, Diphenylhydantoin, reference compound]
0.3 μM
  % inhibition for hERG assay, 0.3 μM: 9%
1 μM
  % inhibition for hERG assay, 1 μM: 20%
3 μM
  % inhibition for hERG assay, 3 μM: 28%
10 μM
  % inhibition for hERG assay, 10 μM: 17%
30 μM
  % inhibition for hERG assay, 30 μM: 40%
